Source: PMC6631887, “In vitro and in vivo characterization of anti-malarial acylphenoxazine derivatives prepared from basic blue 3” (Malaria Journal, 2019)
Where “and” joins values, the source holds several entries; their conditions need not be identical. Identical values can stand only once. Like-named read-outs stand apart in the source and are kept apart here.

What was measured:
[1] = tested on: Plasmodium falciparum field isolate MRA-1239 (ART-sensitive); assay: In vitro anti-malarial efficacy (growth inhibition), XN-30 analyzer, MRA-1239 isolate; assay type: cell-based; settings: read-out: IC50 MRA-1239
Plasmodium berghei NK65 = assay: In vivo anti-malarial activity, rodent malaria model, oral administration; set-up: species or system Plasmodium berghei (in ICR mice); settings: for MSD (mean survival day) / % suppression on day 4: mice; for MSD (mean survival day): observed to day 30; for % suppression on day 4: repeated for 3 consecutive days, parasitaemia vs control
Method: The in vivo anti-malarial efficacy of ITT-001 to 006 was evaluated using the rodent malaria parasite P. berghei NK65 as described by Fidock et al., with some modifications. The parasite was maintained by syringe passage every week in female ICR mice (4–8-week-old; body weight, 25–27 g, Sankyo Lab Service, Tokyo, Japan). On day 0, a 200 µL aliquot of saline containing 2 × 10^7 iRBCs prepared from the pre-infected mice was injected intravenously into the mice. After 4 h, basic blue 3 and ITT-001 to 006 dissolved or suspended in 5% (w/v) methyl cellulose 400 solution (FUJIFILM Wako Pure Chemical, Osaka, Japan) were orally administered (100 mg/kg body weight of basic blue 3 and ITT-001 to 006 and 50 mg/kg body weight of ITT-004) to the mice (four and five groups for basic blue 3 and ITT-001 to 006, respectively). The control group (five mice/group) was treated with approximately 100 µL of the vehicle. This treatment was repeated for 3 consecutive days. On day 4, peripheral blood samples were obtained from the tail veins of the mice and thin blood smears stained with Diff-Quik stain kit (Sysmex) were observed under a Leica DM6000B microscope (Leica Microsystems, Wetzlar, Germany). Parasitaemia was determined by counting over 10 fields of view. The suppression rate (%) was calculated as the difference in parasitaemia between the test and control groups. The mean survival day (MSD) was calculated from the number of the surviving mice on day 30. The surviving mice were cured on day 30. Kaplan–Meier curves were generated to graphically display the efficacy using GraphPad Prism version 5.0.

[2] = Cytotoxic assay (Cell Counting Kit-8), HepG2; assay type: cell-based; settings: human, HepG2 cells; 48 h culture, CCK-8; mean ± SEM, three experiments
Method: (§1) HepG2 (JCRB1054) and HEK293T cell lines were obtained from the Japanese Collection of Research Bioresources (JCRB, Osaka, Japan) and Prof. Yoshiharu Matsuura (Osaka University, Osaka, Japan), respectively. The cells were cultured in Dulbecco’s modified Eagle’s medium (DMEM (1.0 g/L glucose) with L-glutamine and sodium pyruvate; Nacalai Tesque, Kyoto, Japan) supplemented with 10% (v/v) fetal bovine serum (FBS; Gibco-BRL, Grand Island, NY, USA) in a humidified incubator with 5% CO2 at 37 °C. For the cytotoxic assay, the cells (5 × 10^3/well) were seeded in a 96-well plate. […] Cell viability was measured using a Cell Counting Kit-8 (Dojindo) according to the manufacturer’s instructions. Briefly, 10 µL CCK-8 reagent was added to each well containing culture medium and incubated for 2 h under standard culture conditions. The absorbance of the sample was measured at 450 nm using a PowerWave HT microplate spectrophotometer (BioTek Instruments, Winooski, VT, USA). The cell viability was expressed as a percentage of the absorbance of the untreated control cells after subtracting the appropriate background intensity. The CC50 (mean ± SEM) was calculated as described in IC50. The SI, which is the ratio between the cytotoxicity and anti-malarial activity, was calculated according to the following equation. SI=mean CC50/mean IC50.

[3] = tested on: Plasmodium falciparum 3D7 (CQ- and PYR-sensitive); assay: In vitro anti-malarial efficacy (growth inhibition), XN-30 analyzer, 3D7 strain; assay type: cell-based; settings: read-out: IC50 3D7
[4] = tested on: Plasmodium falciparum field isolate MRA-1240 (ART-resistant); assay: In vitro anti-malarial efficacy (growth inhibition), XN-30 analyzer, MRA-1240 isolate; assay type: cell-based; settings: read-out: IC50 MRA-1240
[5] = tested on: Plasmodium falciparum W2 (CQ- and PYR-resistant); assay: In vitro anti-malarial efficacy (growth inhibition), XN-30 analyzer, W2 strain; assay type: cell-based; settings: read-out: IC50 W2
[6] = Cytotoxic assay (Cell Counting Kit-8), HEK293T; assay type: cell-based; settings: human, HEK293T cells; 48 h culture, CCK-8; mean ± SEM, three experiments
Method: as §1

[7] = Measurement of fluorescence spectrum (self-fluorescence); assay type: physicochemical; settings: 10 µM in saline containing 1% DMSO, excitation 592 nm, emission 630-730 nm
Method: Fluorescence spectrum of basic blue 3 and ITT-001 to 006 (10 µM) was obtained in saline containing 1% DMSO at room temperature. The compounds were excited at 592 nm (bandpass width, 5 nm) and their emission spectra, 630 nm to 730 nm, were measured with a RF-5300PC Spectro fluorophotometer (Shimadzu).

[8] = tested on: Plasmodium falciparum 3D7 (ring-form-synchronized); assay: Characterization of anti-malarial activity in vitro, 24 h treatment, XN-30 analyzer and light microscopy; assay type: cell-based; settings: 3D7, 24 h treatment; for concentration at which parasites were arrested or killed with the ring-form: XN-30 analyzer (Fig. 2i); for concentration at which trophozoites appeared: XN-30 analyzer (Fig. 2ii)
Method: The ring-form-synchronized parasite (3D7 strain) was treated with the indicated concentrations of basic blue 3 and ITT-001 to 006 for 24 h for flow cytometric and morphological analyses using an automated haematology analyzer, XN-30, and light microscope, respectively.
For the flow cytometric analysis, the XN30 analyzer was equipped with a prototype algorithm for cultured P. falciparum [prototype; software version: 01-03, (build 16)] and specific reagents were used ([…] DCL, SULFOLYSER, Lysercell M, and Fluorocell M) (Sysmex, Kobe, Japan). Approximately 100 µL of the culture suspension diluted with 100 µL phosphate-buffered saline was added into a BD Microtainer MAP Microtube for Automated Process K2 EDTA 1.0 mg tube (Becton–Dickinson and Co., Franklin Lakes, NJ, USA) and loaded onto the XN-30 analyzer with an auto-sampler as described in the instrument’s manual (Sysmex). […] Horizontal and vertical axes represent the intensities of side fluorescent light (SFL, which corresponds to DNA content) and forward scattered light (FSC, indicating iRBC size), respectively. Colours indicate the following based on the default setting: red, ring-form; orange, trophozoite; purple, schizont; and blue, polychromatic RBC. Once parasites replicate DNA, dots are plotted to the right side on the M scattergram according to the increase in DNA content. The parasitaemias (total, MI-RBC%; ring-form, RNG-RBC%; trophozoite, TRPZ-RBC%; and schizont, SCHZ-RBC%) were automatically reported.
A standard thin blood smear was fixed with 100% methanol for 10 min and stained with 10% Giemsa working solution, pH 7.2 (Merck KGaA, Darmstadt, Germany) for 13 min.

[9] = 48 h treatment, ring-form-synchronized, XN-30 analyzer, mean ± SEM, three experiments
[10] = oral 100 mg/kg, surviving mice considered cured
[11] = Plasmodium falciparum, 3D7, 48 h, 48 h treatment, ring-form-synchronized, XN-30 analyzer, mean ± SEM, three experiments
[12] = Plasmodium falciparum, W2, 48 h, 48 h treatment, ring-form-synchronized, XN-30 analyzer, mean ± SEM, three experiments

| SMILES | IC50 [1, 9] | MSD (mean survival day) (Plasmodium berghei NK65; oral 100 mg/kg) | % suppression on day 4 (Plasmodium berghei NK65; oral 100 mg/kg) | # of survived mice on day 30 (Plasmodium berghei NK65; [10]) | CC50 at 48 h [2] | IC50 [3, 11] | IC50 [4, 9] | IC50 [5, 12] | CC50 at 48 h [6] | maximum fluorescence intensity [7] | also measured |
| --- | --- | --- | --- | --- | --- | --- | --- | --- | --- | --- | --- |
| CCN(CC)c1ccc2c(c1)Oc1cc(N(CC)CC)ccc1N2C(=O)C(C)(C)C [ITT-002, 1-(3,7-Bis(diethylamino)-10H-phenoxazin-10-yl)-2,2-dimethylpropan-1-one] | 20.7 ± 1.6 nM | 19.2 days | > 99% | 2/5 | > 50000 nM | 10.7 ± 1.5 nM | 24.4 ± 3.7 nM | 10.4 ± 2.8 nM | 200 ± 21 nM |  |  |
| CCN(CC)c1ccc2c(c1)Oc1cc(N(CC)CC)ccc1N2C(=O)c1ccccc1 [ITT-004, (3,7-Bis(diethylamino)-10H-phenoxazin-10-yl)(phenyl)methanone] | 26.4 ± 2.9 nM | 29.4 days | > 99% |  | > 50000 nM | 11.3 ± 2.4 nM | 30.5 ± 2 nM | 12.3 ± 2.7 nM | 10500 ± 3400 nM | less than 3 a.u. | MSD (mean survival day) (Plasmodium berghei NK65; oral 50 mg/kg): 11.8 days; % suppression on day 4 (Plasmodium berghei NK65; oral 50 mg/kg): > 99%; # of survived mice on day 30 (Plasmodium berghei NK65; oral 50 mg/kg): 0/5; # of survived mice on day 30 (Plasmodium berghei NK65; oral 100 mg/kg, surviving mice considered cured, 100 mg/kg): four of five and 4 out of 5 and 4/5 |
| C[C@@H]1CC[C@H]2[C@@H](C)C(=O)O[C@@H]3O[C@@]4(C)CC[C@@H]1[C@]32OO4 [ART, artemisinin, reference compound] | 5.5 ± 0.018 nM |  |  |  |  |  | 13.2 ± 1.4 nM |  |  |  |  |
| CCN(CC)c1ccc2nc3ccc(=[N+](CC)CC)cc-3oc2c1 [basic blue 3] | 5.2 ± 1.1 nM | 20.3 days | > 99% | 1/4 | 1000 ± 64 nM | ~4 nM | 5.9 ± 0.68 nM | ~4 nM | 21 ± 4.2 nM | 775 a.u. | concentration at which parasites were arrested or killed with the ring-form [8]: 15 nM; concentration at which trophozoites appeared [8]: 0.5 nM; IC50 [3, 9]: 3.2 ± 0.19 nM; IC50 [5, 9]: 4.8 ± 0.53 nM |
| CCN(CC)c1ccc2c(c1)Oc1cc(N(CC)CC)ccc1N2C(=O)C1CC1 [ITT-003] | 24.9 ± 3.1 nM | 21.0 days | > 99% | 2/5 | > 50000 nM | 9.8 ± 1 nM | 31.3 ± 9.8 nM | 9.6 ± 2.1 nM | 9200 ± 3800 nM |  |  |
| CCN(CC)CCCC(C)Nc1ccnc2cc(Cl)ccc12 (stereo not shown) [CQ, chloroquine, reference compound] |  |  |  |  |  |  |  |  |  |  | IC50 ([1]; 48 h): 38.6 ± 5.2 nM; IC50 ([3]; Plasmodium falciparum, 3D7, 48 h): 8.6 ± 0.21 nM; IC50 ([4]; 48 h): 58 ± 2.6 nM; IC50 ([5]; Plasmodium falciparum, W2, 48 h): 225 ± 23.2 nM |
| CCN(CC)c1ccc2c(c1)Oc1cc(N(CC)CC)ccc1N2C(=O)c1ccc(F)cc1 [ITT-006, (3,7-Bis(diethylamino)-10H-phenoxazin-10-yl)(4-fluorophenyl)methanone] | 27.5 ± 3.4 nM | 13.0 days | 91.5% | 0/5 | > 50000 nM | 10.6 ± 1.6 nM | 29.4 ± 5.8 nM | 16 ± 4.5 nM | 13600 ± 3000 nM | less than 3 a.u. |  |
| CCN(CC)c1ccc2c(c1)Oc1cc(N(CC)CC)ccc1N2C(C)=O [ITT-001, 1-(3,7-Bis(diethylamino)-10H-phenoxazin-10-yl)ethanone] | 34.6 ± 9.1 nM | 20.4 days | > 99% | 3/5 | 4000 ± 850 nM | 11.2 ± 1.3 nM | 39 ± 11.2 nM | 11.1 ± 1.8 nM | 320 ± 42 nM |  |  |
| CCN(CC)CC(=O)N1c2ccc(N(CC)CC)cc2Oc2cc(N(CC)CC)ccc21.Cl [ITT-005, 1-(3,7-Bis(diethylamino)-10H-phenoxazin-10-yl)-2-(diethylamino)ethanone hydrochloride] | 130 ± 9.3 nM | 14.0 days | > 99% | 1/5 | 4600 ± 260 nM |  | 184 ± 30.1 nM |  | 730 ± 93 nM |  | concentration at which parasites were arrested or killed with the ring-form [8]: 5000 nM; concentration at which trophozoites appeared [8]: 150 nM |
